Laboratory results from patent US20240307401A1, “TREATMENT OF JAK-INHIBITION-RESPONSIVE DISORDERS WITH PRODRUGS OF JAK INHIBITORS” (SUN PHARMACEEUTICAL INDUSTRIES, INC., priority 2021, published 2024).

Tests used:
[1] = system: patients suffering from alopecia areata; conditions: human clinical trials, at certain doses; cited from earlier work
[2] = In vitro conversion of Compound (I-1d) DBTA salt to CTP-543 under conditions similar to human stomach (0.1N HCl, 37° C.), HPLC analysis; assay type: physicochemical; conditions: for CTP-543 Concentration: 28.5 mg DBTA salt in 250 mL
Procedure: An in vitro study was conducted to test the conversion of the dibenzoyl-D-tartaric acid (DBTA) salt of Compound (I-1d) (a compound of Formula (I)) to CTP-543 (a compound of Formula (III)) when subjected to biologically-relevant conditions similar to human stomach conditions (0.1N hydrochloric acid, 37° C.).
Study Conditions: At 37° C., 28.5 mg of Compound (I-1d)·DBTA salt (equivalent to 14.6 mg of Compound (I-1d)) was added to 250 mL of 0.1N HCl while stirring. Samples were removed via syringe at 30, 60, 120 and 240 minutes, (times relevant to potential human gastric residence time), then were filtered through a syringe filter and analyzed by HPLC.

Row | % Conversion to CTP-543 ([2]; 30 min) [%] | CTP-543 Concentration ([2]; 30 min) [mg/mL] | % Conversion to CTP-543 ([2]; 60 min) [%] | CTP-543 Concentration ([2]; 60 min) [mg/mL] | % Conversion to CTP-543 ([2]; 120 min) [%] | CTP-543 Concentration ([2]; 120 min) [mg/mL] | % Conversion to CTP-543 ([2]; 240 min) [%] | CTP-543 Concentration ([2]; 240 min) [mg/mL] | Structure (SMILES) | Hair growth in patients suffering from alopecia areata [1]
1 |  |  |  |  |  |  |  |  | [2H]C1([2H])C([C@@H](CC#N)n2cc(-c3ncnc4[nH]ccc34)cn2)C([2H])([2H])C([2H])([2H])C1([2H])[2H] [CTP-543, (R)-3-(4-(7H-pyrrolo[2,3-d]pyrimidin-4-yl)-1H-pyrazol-1-yl)-3-(cyclopentyl-2,2,3,3,4,4,5,5-d8)propanenitrile] | shown to stimulate hair growth
2 | 8 | 0.004 | 10 | 0.005 | 16 | 0.008 | 22 | 0.011 | [2H]C1([2H])C([C@@H](CC#N)n2cc(-c3ncnc(N)c3CC(OC)OC)cn2)C([2H])([2H])C([2H])([2H])C1([2H])[2H] [Compound (I-1d)] | 
